The values that follow come from ChEMBL document CHEMBL4265997, “Decision Making in Medicinal Chemistry: The Power of Our Intuition” (ACS Med Chem Lett, 2018).

The target of the assay is Estrogen receptor beta (Homo sapiens, UniProt Q92731). Put plainly: Antagonist activity at ER-beta (unknown origin).
Sequence of Estrogen receptor beta (Q92731 whole entry): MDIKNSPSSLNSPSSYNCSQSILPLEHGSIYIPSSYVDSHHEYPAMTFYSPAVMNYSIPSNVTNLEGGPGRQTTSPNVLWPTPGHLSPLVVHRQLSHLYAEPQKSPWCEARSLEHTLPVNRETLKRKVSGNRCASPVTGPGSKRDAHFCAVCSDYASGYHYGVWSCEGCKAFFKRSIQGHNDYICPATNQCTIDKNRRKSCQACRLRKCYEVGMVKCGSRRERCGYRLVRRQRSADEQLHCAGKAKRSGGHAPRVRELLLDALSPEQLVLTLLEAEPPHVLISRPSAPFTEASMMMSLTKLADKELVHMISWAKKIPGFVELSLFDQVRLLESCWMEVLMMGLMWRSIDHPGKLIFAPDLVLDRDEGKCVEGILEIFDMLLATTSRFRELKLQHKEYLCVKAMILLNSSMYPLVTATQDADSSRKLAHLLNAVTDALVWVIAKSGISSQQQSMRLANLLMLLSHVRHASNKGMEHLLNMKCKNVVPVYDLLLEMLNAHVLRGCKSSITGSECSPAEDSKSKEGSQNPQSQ

With `CNC(=O)c1ccc2nc(C)c3nnc(-c4cc(OCC(C)C)ccc4Cl)n3c2c1`, it took 0.631 nM to reach half-maximal inhibition (IC50).
As for `CNC(=O)c1ccc2nc(C)c3nnc(-c4ccccc4Cl)n3c2c1`, the IC50 (usually the concentration that inhibits the measured activity by half) was 2.51 nM.
